In the NIST ThermoML archive (doi:10.1021/acs.jced.7b00121):
± gives the expanded uncertainty stated by the source.

Settings: 101.33 kPa, Liquid; for viscosity: Falling or rolling sphere viscometry; for mass density: Vibrating tube method

Row | viscosity (288.15 K) | mass density (288.15 K) | viscosity (293.15 K) | mass density (293.15 K) | viscosity (298.15 K) | mass density (298.15 K) | viscosity (303.15 K) | mass density (303.15 K) | viscosity (308.15 K) | mass density (308.15 K) | viscosity (313.15 K) | mass density (313.15 K) | viscosity (318.15 K) | mass density (318.15 K) | viscosity (323.15 K) | mass density (323.15 K) | viscosity (328.15 K) | mass density (328.15 K) | viscosity (333.15 K) | mass density (333.15 K) | other results | Compound
1 | 0.987 ± 0.099 mPa·s | 733.57 ± 1.5 kg/m3 | 0.915 ± 0.092 mPa·s | 729.81 ± 1.5 kg/m3 | 0.852 ± 0.085 mPa·s | 726.05 ± 1.5 kg/m3 | 0.797 ± 0.08 mPa·s | 722.28 ± 1.4 kg/m3 | 0.747 ± 0.075 mPa·s | 718.49 ± 1.4 kg/m3 | 0.703 ± 0.07 mPa·s | 714.69 ± 1.4 kg/m3 | 0.663 ± 0.066 mPa·s | 710.88 ± 1.4 kg/m3 | 0.627 ± 0.063 mPa·s | 707.06 ± 1.4 kg/m3 | 0.593 ± 0.059 mPa·s | 703.21 ± 1.4 kg/m3 | 0.563 ± 0.056 mPa·s | 699.36 ± 1.4 kg/m3 | viscosity (338.15 K): 0.536 ± 0.054 mPa·s; mass density (338.15 K): 695.48 ± 1.4 kg/m3; viscosity (343.15 K): 0.512 ± 0.051 mPa·s; mass density (343.15 K): 691.59 ± 1.4 kg/m3 | CCCCCCCCCC [decane]
2 | 0.432 ± 0.043 mPa·s | 688.13 ± 1.4 kg/m3 | 0.412 ± 0.041 mPa·s | 683.93 ± 1.4 kg/m3 | 0.393 ± 0.039 mPa·s | 679.71 ± 1.4 kg/m3 | 0.377 ± 0.038 mPa·s | 675.47 ± 1.4 kg/m3 | 0.362 ± 0.036 mPa·s | 671.2 ± 1.4 kg/m3 | 0.348 ± 0.035 mPa·s | 666.89 ± 1.4 kg/m3 | 0.335 ± 0.034 mPa·s | 662.55 ± 1.4 kg/m3 | 0.324 ± 0.033 mPa·s | 658.19 ± 1.3 kg/m3 | 0.312 ± 0.031 mPa·s | 653.79 ± 1.3 kg/m3 | 0.302 ± 0.03 mPa·s | 649.33 ± 1.3 kg/m3 | viscosity (338.15 K): 0.293 ± 0.029 mPa·s; mass density (338.15 K): 644.84 ± 1.3 kg/m3; viscosity (343.15 K): 0.284 ± 0.029 mPa·s; mass density (343.15 K): 640.29 ± 1.3 kg/m3 | CCCCCCC [heptane]
3 | 0.763 ± 0.077 mPa·s | 721.64 ± 1.4 kg/m3 | 0.713 ± 0.072 mPa·s | 717.78 ± 1.4 kg/m3 | 0.669 ± 0.067 mPa·s | 713.91 ± 1.4 kg/m3 | 0.63 ± 0.063 mPa·s | 710.03 ± 1.4 kg/m3 | 0.594 ± 0.06 mPa·s | 706.12 ± 1.4 kg/m3 | 0.564 ± 0.057 mPa·s | 702.2 ± 1.4 kg/m3 | 0.535 ± 0.054 mPa·s | 698.26 ± 1.4 kg/m3 | 0.509 ± 0.051 mPa·s | 694.3 ± 1.4 kg/m3 | 0.485 ± 0.049 mPa·s | 690.33 ± 1.4 kg/m3 | 0.462 ± 0.046 mPa·s | 686.34 ± 1.4 kg/m3 | viscosity (338.15 K): 0.443 ± 0.044 mPa·s; mass density (338.15 K): 682.31 ± 1.4 kg/m3; viscosity (343.15 K): 0.425 ± 0.043 mPa·s; mass density (343.15 K): 678.26 ± 1.4 kg/m3 | CCCCCCCCC [nonane]
4 | 0.585 ± 0.059 mPa·s | 706.54 ± 1.4 kg/m3 | 0.552 ± 0.055 mPa·s | 702.53 ± 1.4 kg/m3 | 0.523 ± 0.052 mPa·s | 698.51 ± 1.4 kg/m3 | 0.496 ± 0.05 mPa·s | 694.48 ± 1.4 kg/m3 | 0.473 ± 0.047 mPa·s | 690.42 ± 1.4 kg/m3 | 0.45 ± 0.045 mPa·s | 686.34 ± 1.4 kg/m3 | 0.431 ± 0.043 mPa·s | 682.24 ± 1.4 kg/m3 | 0.412 ± 0.041 mPa·s | 678.11 ± 1.4 kg/m3 | 0.395 ± 0.04 mPa·s | 673.95 ± 1.4 kg/m3 | 0.379 ± 0.038 mPa·s | 669.77 ± 1.4 kg/m3 | viscosity (338.15 K): 0.365 ± 0.037 mPa·s; mass density (338.15 K): 665.55 ± 1.4 kg/m3; viscosity (343.15 K): 0.352 ± 0.035 mPa·s; mass density (343.15 K): 661.28 ± 1.3 kg/m3 | CCCCCCCC [octane]
